{
  "source": "patent US11655208B2",
  "about": "“1-carboxy-2-hydroxy-3-iminopropane and extraction method thereof” (Jiangnan University, priority 2020, dated 2023)",
  "type_in_all_cases": "in vivo",
  "key": {"[1]": {"tested_on": "male ICR mice", "assay": "Pentobarbital sodium induced sleep test", "set-up": "Sleep duration period: unit not given here", "method": "(§1) 30 SPF-level 4-week-old male ICR (Institute of Cancer Research) mice were adaptively reared for 1 week and then randomly divided into 3 groups with 10 mice in each group. An experimental group and a blank group were given an aqueous solution of the 1-carboxy-2-hydroxy-3-iminopropane and water at a dose of 1.0 g/kg·bw by gavage respectively, and a positive control group was given an aqueous solution of estazolam at a dose of 2 mg/kg·bw by the gavage. After continuous gavage for 14 days, tests were carried out. The tests were carried out around 25° C. in a quiet environment.\nBefore the test, a preliminary test was carried out to determine a dose of pentobarbital sodium by intraperitoneal injection. After the intraperitoneal injection, the dose when all mice fell asleep for a moderate time was used as a standard, and the test was carried out with this dose (50 mg/kg·bw). 30 minutes after the last gavage, the mice were given the pentobarbital sodium by intraperitoneal injection to induce sleep. The time from injection of the pentobarbital sodium to disappearance of a righting reflex was recorded as a sleep latency period of the mice. The time from the disappearance of the righting reflex to reappearance of the righting reflex was recorded as a […] of the mice. Whether or not the latency period of each group was shortened and whether or not the sleep time was prolonged were observed."}, "[2]": {"tested_on": "male ICR mice", "assay": "Direct sleep observation test", "settings": "for 12 h sleep duration period: mice, sleep time within 12 hours after the gavage, x ± s", "method": "as §1\nAfter the open field test was completed, a direct sleep observation test was carried out the next night. 30 minutes after the gavage, a surveillance camera was used for observation, and a sleep time of the mice in each group within 12 hours after the gavage was recorded."}, "[3]": {"tested_on": "male ICR mice", "assay": "Open field test", "settings": "for Movement speed / Movement time / Stay time in the middle area: mice, gavage for 14 days, within 10 minutes, x ± s", "method": "as §1\nAn open field maze of 4 units (each unit 50 cm×50 cm×38 cm) consisting of 4 activity spaces were used in the test, and 4 mice were tested each time. The open field spaces were cleaned with alcohol before the test, and the test was started 30 minutes after a sample group was administered (15 minutes after a positive control group was administered). During the test, tails of the mice were gently grasped, and the mice were placed in the middle of each unit of the open field maze for adaption for 5 minutes. A software start button was clicked to activate software for tracking moving paths of the mice. With an average movement speed, a movement time and a stay time in the middle area within 10 minutes as indexes, data analysis was conducted by using EthoVision XT 11 software. After each test was completed, urine and feces were cleaned, and a bottom and an inner wall of the maze were sprayed with 5-10% ethanol and then wiped with paper to remove an odor left by the mice. Then, a next group of the mice was tested, and influence of the odor and residue on the next group of the mice was avoided."}, "[4]": {"settings": "mice, pentobarbital sodium 50 mg/kg·bw i.p. 30 minutes after the last gavage, x ± s"}, "[5]": {"settings": "pentobarbital sodium induced sleep, vs blank group, P<0.05"}},
  "data": [
    {"smiles": "N=CC(O)CC(=O)O", "note": "(centres unmarked) [1-carboxy-2-hydroxy-3-iminopropane]", "values": [
      {"measurement": "Latency period", "setting": "[1]; [4]", "result": "3.60 ± 0.368", "unit": "s"},
      {"measurement": "Sleep duration period", "setting": "[1]; [4]", "result": "34.73 ± 12.71"},
      {"measurement": "sleep duration period prolonged by", "setting": "[1]; [5]", "result": 61.49, "unit": "%"},
      {"measurement": "sleep latency period shortened by", "setting": "[1]; [5]", "result": 24.62, "unit": "%"},
      {"measurement": "12 h sleep duration period", "setting": "[2]", "result": "374.33 ± 24.48", "unit": "min"},
      {"measurement": "total sleep duration period within 12 hours (in words)", "setting": "[2]; vs blank group, P<0.05", "result": "longer than that of the blank group"},
      {"measurement": "Movement speed", "setting": "[3]", "result": "4.66 ± 1.14", "unit": "cm/s"},
      {"measurement": "Movement time", "setting": "[3]", "result": "333.76 ± 56.84", "unit": "s"},
      {"measurement": "Stay time in the middle area", "setting": "[3]", "result": "17.81 ± 5.14", "unit": "%"},
      {"measurement": "effect on stay time in the middle area of the mice (in words)", "setting": "[3]; vs blank group, P<0.01", "result": "significantly increased"},
      {"measurement": "effect on movement speed of the mice (in words)", "setting": "[3]; vs blank group, P<0.05", "result": "significantly reduced"},
      {"measurement": "effect on movement time of the mice (in words)", "setting": "[3]; vs blank group, P<0.05", "result": "significantly reduced"}
    ]},
    {"smiles": "Clc1ccc2c(c1)C(c1ccccc1)=NCc1nncn1-2", "note": "[estazolam, reference compound]", "values": [
      {"measurement": "Latency period", "setting": "[1]; [4]", "result": "2.81 ± 0.57", "unit": "s"},
      {"measurement": "12 h sleep duration period", "setting": "[2]", "result": "404.10 ± 34.03", "unit": "min"},
      {"measurement": "Movement speed", "setting": "[3]", "result": "4.60 ± 0.96", "unit": "cm/s"},
      {"measurement": "Movement time", "setting": "[3]", "result": "325.85 ± 51.64", "unit": "s"},
      {"measurement": "Stay time in the middle area", "setting": "[3]", "result": "20.63 ± 9.01", "unit": "%"}
    ]}
  ]
}
